Reference: US20260022142A1, “MACROCYCLIC IMMUNOMODULATORS” (Bristol-Myers Squibb Company, priority 2022, published 2026)
Numbered stars: 1 amine (or outer) side, 2 acyl side, 3 side chain; on linkers, the order of the positions; unused ones are H or OH. Bridge positions count the residues as written; N and C are the ends. Square brackets hold non-standard residues; d marks the D form. Peptide text beside a SMILES is read from it. * marks the point of attachment. ξ: configuration not given here. Phe(4-CH2CH2COOH) = N[C@@H](Cc1ccc(CCC(=O)O)cc1)C(=O)O; Bip = N[C@@H](Cc1ccc(-c2ccccc2)cc1)C(=O)O; d(βAsp) = O=C(O)[C@@H](CC(=O)[*:2])N[*:1]; NH(CH2)14COOH = O=C(O)CCCCCCCCCCCCCCN*; Phe(3-Me) = Cc1cccc(C[C@H](N)C(=O)O)c1; NH(CH2)12COOH = O=C(O)CCCCCCCCCCCCN*; Cyclopropanecarbonyl = O=C(C1CC1)*; Val(3-OH) = CC(C)(O)[C@H](N)C(=O)O; hArg = N=C(N)NCCCC[C@H](N)C(=O)O; Cha = N[C@@H](CC1CCCCC1)C(=O)O; Cit = NC(=O)NCCC[C@H](N)C(=O)O; dCha = N[C@H](CC1CCCCC1)C(=O)O; Thr(3ξ) = CC(O)[C@H](N)C(=O)O; Carboxymethyl = O=C(O)C*; Orn = NCCC[C@H](N)C(=O)O; Aun = NCCCCCCCCCCC(=O)O; Dab = NCC[C@H](N)C(=O)O; Nva = CCC[C@H](N)C(=O)O; Dap = NC[C@H](N)C(=O)O; AEEA = NCCOCCOCC(=O)O

Each compound was assayed against T1, PD-1/PD-L1 interaction (PE-labeled human PD-L1-Ig binding to Jurkat cell line over-expressing human PD-1) (Homo sapiens, UniProt Q15116) (assay: Jurkat-PD-1 Cell Binding High-Content Screening Assay (CBA)). Conditions: Jurkat cell line over-expressing human PD-1; PE-labeled PD-L1-Ig 20 nM final; read-out: Jurkat hPD1-PDL1 IC50.
T1 construct: expressed in transfected cells; host or cells: Jurkat
Assay type: cell-based
Summary of the method: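 Jurkat-hPD-1 cells, DMEM/10% FCS; cpd 2 h 37° C; PE-PD-L1-Ig 20 nM final, 1 h; 4% PFA fix + Hoechst 33342, 3× dPBS wash; high-content imaging read-out.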

T1 sequence (Q15116 25-288): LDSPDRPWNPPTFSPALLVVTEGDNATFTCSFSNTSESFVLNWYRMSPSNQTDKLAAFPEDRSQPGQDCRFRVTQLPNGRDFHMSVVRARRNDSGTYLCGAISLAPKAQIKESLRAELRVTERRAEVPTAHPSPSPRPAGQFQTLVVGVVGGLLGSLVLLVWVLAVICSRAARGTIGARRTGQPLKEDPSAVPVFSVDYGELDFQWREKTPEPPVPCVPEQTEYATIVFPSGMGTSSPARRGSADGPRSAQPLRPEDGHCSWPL

| IC50 | SMILES |
| --- | --- |
| 16.2 nM | Cc1cccc(C[C@@H]2NC(=O)[C@H](CC(=O)O)NC(=O)[C@H](Cc3ccc(OCC(=O)O)cc3)NC(=O)[C@H](CCCCNC(=N)N)NC(=O)CSC[C@@H](C(=O)N[C@@H](CCN)C(=O)NCCCCCCCCCCC(=O)O)NC(=O)[C@H](C(C)O)NC(=O)[C@H](C(C)C)NC(=O)[C@H](CC3CCCCC3)NC(=O)[C@H](CCN)NC(=O)[C@@H](CC(C)C)NC(=O)[C@H](CCCN)NC(=O)[C@H](CCCNC(=O)C3CC3)NC(=O)[C@H](Cc3ccc(-c4ccccc4)cc3)NC(=O)[C@H](Cc3ccc(O)cc3)NC2=O)c1 (stereo partly drawn) [Compound 3581] ({CH2CO}-[hArg]Y(Carboxymethyl)D[Phe(3-Me)]Y[Bip][Orn](Cyclopropanecarbonyl)[Orn][dL][Dab][Cha]V[Thr(3ξ)]C[Dab][Aun]-OH; thioether N-14) |
| 13.5 nM | CC(C)C[C@H]1NC(=O)[C@H](CCCN)NC(=O)[C@H](C(C)C)NC(=O)[C@H](Cc2ccc(-c3ccccc3)cc2)NC(=O)[C@H](C(C)C)NC(=O)[C@H](Cc2c[nH]c3ccccc23)NC(=O)[C@H](CC(=O)O)NC(=O)[C@H](Cc2ccc(OCC(=O)O)cc2)NC(=O)[C@H](CCCCNC(=N)N)NC(=O)CSC[C@@H](C(=O)N[C@@H](CCN)C(=O)NCCOCCOCC(=O)NCCCCCCCCCCC(=O)O)NC(=O)[C@H](CCCNC(N)=O)NC(=O)[C@H](C(C)C)NC(=O)[C@H](CC2CCCCC2)NC(=O)[C@H](CC(N)=O)NC1=O [Compound 3213] ({CH2CO}-[hArg]Y(Carboxymethyl)DWV[Bip]V[Orn][dL]N[Cha]V[Cit]C[Dab][AEEA][Aun]-OH; thioether N-14) |
| 26.3 nM | Cc1cccc(C[C@@H]2NC(=O)[C@H](CC(=O)O)NC(=O)[C@H](Cc3ccc(OCC(=O)O)cc3)NC(=O)[C@H](CC(C)C)NC(=O)CSC[C@@H](C(=O)N[C@@H](CCN)C(=O)NCCOCCOCC(=O)N[C@H](CC(=O)NCCOCCOCC(=O)NCCCCCCCCCCCCC(=O)O)C(=O)O)NC(=O)[C@H](CCC(=O)O)NC(=O)[C@H](C(C)(C)O)NC(=O)[C@H](CC3CCCCC3)NC(=O)[C@H](CCN)NC(=O)[C@@H](CC(C)C)NC(=O)[C@H](CCCN)NC(=O)[C@H](Cc3ccc(OCC(=O)O)cc3)NC(=O)[C@H](Cc3ccc(-c4ccccc4)cc3)NC(=O)[C@H](Cc3ccc(OCC(=O)O)cc3)NC2=O)c1 [Compound 3877] ({CH2CO}-LY(Carboxymethyl)D[Phe(3-Me)]Y(Carboxymethyl)[Bip]Y(Carboxymethyl)[Orn][dL][Dab][Cha][Val(3-OH)]EC[Dab][AEEA][d(βAsp)][AEEA]-{NH(CH2)12COOH}; thioether N-14) |
| 24 nM | Cc1cccc(C[C@@H]2NC(=O)[C@H](CC(=O)O)NC(=O)[C@H](Cc3ccc(CCC(=O)O)cc3)NC(=O)[C@H](CN)NC(=O)CSC[C@@H](C(=O)N[C@@H](CCCN)C(=O)N[C@@H](CO)C(=O)NCCCCCCCCCCC(=O)O)NC(=O)[C@H]([C@@H](C)O)NC(=O)[C@H](C(C)C)NC(=O)[C@H](CC3CCCCC3)NC(=O)[C@H](CCN)NC(=O)[C@@H](CC(C)C)NC(=O)[C@H](CCCN)NC(=O)[C@H](CCCNC(N)=O)NC(=O)[C@H](Cc3ccc(-c4ccccc4)cc3)NC(=O)[C@H](C(C)C)NC2=O)c1 [Compound 2812] ({CH2CO}-[Dap][Phe(4-CH2CH2COOH)]D[Phe(3-Me)]V[Bip][Cit][Orn][dL][Dab][Cha]VTC[Orn]S[Aun]-OH; thioether N-14) |
| 24.1 nM | Cc1cccc(C[C@@H]2NC(=O)[C@H](CC(=O)O)NC(=O)[C@H](Cc3ccc(OCC(=O)O)cc3)NC(=O)[C@H](CN)NC(=O)CSC[C@@H](C(=O)NCCOCCOCC(=O)N[C@@H](CCN)C(=O)NCCCCCCCCCCC(=O)O)NC(=O)[C@H](CN)NC(=O)[C@H](C(C)C)NC(=O)[C@H](CC3CCCCC3)NC(=O)[C@H](CCN)NC(=O)[C@@H](CC3CCCCC3)NC(=O)[C@H](CCCN)NC(=O)[C@H](C(C)C)NC(=O)[C@H](Cc3ccc(-c4ccccc4)cc3)NC(=O)[C@H](C(C)C)NC2=O)c1 [Compound 2675] ({CH2CO}-[Dap]Y(Carboxymethyl)D[Phe(3-Me)]V[Bip]V[Orn][dCha][Dab][Cha]V[Dap]C[AEEA][Dab][Aun]-OH; thioether N-14) |
| 467 nM | CCC[C@@H]1NC(=O)CSC[C@@H](C(=O)N[C@@H](CCN)C(=O)NCCOCCOCC(=O)NCCCCCCCCCCCCCCC(=O)O)NC(=O)[C@H](CO)NC(=O)[C@H](C(C)(C)O)NC(=O)[C@H](CC2CCCCC2)NC(=O)[C@H](CCN)NC(=O)[C@@H](CC(C)C)NC(=O)[C@H](CCCN)NC(=O)[C@H](Cc2ccc(OCC(=O)O)cc2)NC(=O)[C@H](Cc2ccc(-c3ccccc3)cc2)NC(=O)[C@H](Cc2ccc(OCC(=O)O)cc2)NC(=O)[C@H](Cc2cccc(C)c2)NC(=O)[C@H](CC(=O)O)NC(=O)[C@H](Cc2ccc(OCC(=O)O)cc2)NC1=O [Compound 2868] ({CH2CO}-[Nva]Y(Carboxymethyl)D[Phe(3-Me)]Y(Carboxymethyl)[Bip]Y(Carboxymethyl)[Orn][dL][Dab][Cha][Val(3-OH)]SC[Dab][AEEA]-{NH(CH2)14COOH}; thioether N-14) |
| 17.9 nM | CC(C)C[C@H]1NC(=O)[C@H](CCCN)NC(=O)[C@H](C(C)C)NC(=O)[C@H](Cc2ccc(-c3ccccc3)cc2)NC(=O)[C@H](C(C)C)NC(=O)[C@H](Cc2c[nH]c3ccccc23)NC(=O)[C@H](CC(=O)O)NC(=O)[C@H](Cc2ccc(OCC(=O)O)cc2)NC(=O)[C@H](CCCCNC(=N)N)NC(=O)CSC[C@@H](C(=O)N[C@@H](CCN)C(=O)NCCOCCOCC(=O)NCCCCCCCCCCC(=O)O)NC(=O)[C@H](CCCCN)NC(=O)[C@H](C(C)C)NC(=O)[C@H](CC2CCCCC2)NC(=O)[C@H](CC(N)=O)NC1=O [Compound 3217] ({CH2CO}-[hArg]Y(Carboxymethyl)DWV[Bip]V[Orn][dL]N[Cha]VKC[Dab][AEEA][Aun]-OH; thioether N-14) |
| 12 nM | Cc1cccc(C[C@@H]2NC(=O)[C@H](CC(=O)O)NC(=O)[C@H](Cc3ccc(OCC(=O)O)cc3)NC(=O)[C@H](C(C)O)NC(=O)CSC[C@@H](C(=O)N[C@@H](C)C(=O)N[C@@H](CCN)C(=O)NCCCCCCCCCCC(=O)O)NC(=O)[C@H](C(C)O)NC(=O)[C@H](C(C)C)NC(=O)[C@H](CC3CCCCC3)NC(=O)[C@H](CCN)NC(=O)[C@@H](CC(C)C)NC(=O)[C@H](CCCN)NC(=O)[C@H](C(C)C)NC(=O)[C@H](Cc3ccc(-c4ccccc4)cc3)NC(=O)[C@H](C(C)C)NC2=O)c1 (stereo partly drawn) [Compound 3020] ({CH2CO}-[Thr(3ξ)]Y(Carboxymethyl)D[Phe(3-Me)]V[Bip]V[Orn][dL][Dab][Cha]V[Thr(3ξ)]CA[Dab][Aun]-OH; thioether N-14) |
| 40.4 nM | CC(C)C[C@@H]1NC(=O)[C@H](Cc2c[nH]c3ccccc23)NC(=O)[C@H](CC(=O)O)NC(=O)[C@H](Cc2ccc(OCC(=O)O)cc2)NC(=O)[C@H](CN)NC(=O)CSC[C@@H](C(=O)N[C@@H](CCN)C(=O)NCCCCCCCCCCC(=O)O)NC(=O)[C@@H](CO)NC(=O)[C@H](C(C)C)NC(=O)[C@H](CC2CCCCC2)NC(=O)[C@H](CCN)NC(=O)[C@@H](CC(C)C)NC(=O)[C@H](CCCN)NC(=O)[C@H](C(C)C)NC(=O)[C@H](Cc2ccc(-c3ccccc3)cc2)NC1=O [Compound 2018] ({CH2CO}-[Dap]Y(Carboxymethyl)DWL[Bip]V[Orn][dL][Dab][Cha]V[dS]C[Dab][Aun]-OH; thioether N-14) |
